According to article PMC10824666 (Nature Cancer, 2023):
Where two headings read alike, the source gives them in different places. Values belong to the molecule of their own block, whether it stands above or below them.

Columns and labels:
Assay in all cases: biochemical
Set-up in all cases: Eurofins DiscoverX kinase panel, competitive binding assay at 1 uM, percent of DMSO control
Details in all cases: competitive binding, percent of DMSO control
Abl_phos = target: T1, Abl_phos (Homo sapiens, UniProt P00519)
T1 construct: gene ABL1; phosphorylated
T1 sequence (P00519 whole entry): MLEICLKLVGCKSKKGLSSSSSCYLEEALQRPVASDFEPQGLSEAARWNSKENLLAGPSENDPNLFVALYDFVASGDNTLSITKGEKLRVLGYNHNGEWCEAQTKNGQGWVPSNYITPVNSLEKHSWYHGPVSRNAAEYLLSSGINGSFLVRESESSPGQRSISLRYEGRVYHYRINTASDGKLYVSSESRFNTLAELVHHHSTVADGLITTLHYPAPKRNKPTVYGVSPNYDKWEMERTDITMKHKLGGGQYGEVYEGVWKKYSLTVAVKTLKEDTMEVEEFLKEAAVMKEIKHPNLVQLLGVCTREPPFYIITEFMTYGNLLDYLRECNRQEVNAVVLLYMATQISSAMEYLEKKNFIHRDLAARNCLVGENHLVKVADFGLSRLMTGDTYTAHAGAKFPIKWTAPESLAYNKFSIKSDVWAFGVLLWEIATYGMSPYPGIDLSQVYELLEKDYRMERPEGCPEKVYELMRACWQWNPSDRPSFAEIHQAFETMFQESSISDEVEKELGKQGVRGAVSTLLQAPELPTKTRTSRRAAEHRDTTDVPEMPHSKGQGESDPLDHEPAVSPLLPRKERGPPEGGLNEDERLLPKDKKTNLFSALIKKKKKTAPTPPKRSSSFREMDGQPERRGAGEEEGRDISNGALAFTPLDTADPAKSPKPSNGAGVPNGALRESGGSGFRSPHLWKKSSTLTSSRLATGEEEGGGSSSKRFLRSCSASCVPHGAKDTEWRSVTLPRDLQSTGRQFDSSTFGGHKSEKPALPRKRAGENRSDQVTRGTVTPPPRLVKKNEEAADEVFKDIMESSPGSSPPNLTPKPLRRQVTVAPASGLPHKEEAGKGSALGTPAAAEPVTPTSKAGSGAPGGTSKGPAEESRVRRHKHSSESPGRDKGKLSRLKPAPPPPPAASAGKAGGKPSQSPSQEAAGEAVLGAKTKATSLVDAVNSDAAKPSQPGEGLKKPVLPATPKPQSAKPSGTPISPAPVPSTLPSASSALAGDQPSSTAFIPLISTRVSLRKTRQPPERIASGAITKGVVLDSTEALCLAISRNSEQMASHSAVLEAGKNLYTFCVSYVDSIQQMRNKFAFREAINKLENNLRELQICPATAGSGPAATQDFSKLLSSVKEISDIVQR
Procedure, shortened: (§1)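 Competitive binding assay across a 96-kinase panel with KIF18A compounds at 1 µM; values given as percentage of control (POC), single experiment.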

CDK2 = CDK2 (Homo sapiens, UniProt P24941)
Procedure, shortened: as §1

MAP3K1 = MAP3K1 (Homo sapiens, UniProt Q13233)
MAP3K1, sequence (Q13233 whole entry): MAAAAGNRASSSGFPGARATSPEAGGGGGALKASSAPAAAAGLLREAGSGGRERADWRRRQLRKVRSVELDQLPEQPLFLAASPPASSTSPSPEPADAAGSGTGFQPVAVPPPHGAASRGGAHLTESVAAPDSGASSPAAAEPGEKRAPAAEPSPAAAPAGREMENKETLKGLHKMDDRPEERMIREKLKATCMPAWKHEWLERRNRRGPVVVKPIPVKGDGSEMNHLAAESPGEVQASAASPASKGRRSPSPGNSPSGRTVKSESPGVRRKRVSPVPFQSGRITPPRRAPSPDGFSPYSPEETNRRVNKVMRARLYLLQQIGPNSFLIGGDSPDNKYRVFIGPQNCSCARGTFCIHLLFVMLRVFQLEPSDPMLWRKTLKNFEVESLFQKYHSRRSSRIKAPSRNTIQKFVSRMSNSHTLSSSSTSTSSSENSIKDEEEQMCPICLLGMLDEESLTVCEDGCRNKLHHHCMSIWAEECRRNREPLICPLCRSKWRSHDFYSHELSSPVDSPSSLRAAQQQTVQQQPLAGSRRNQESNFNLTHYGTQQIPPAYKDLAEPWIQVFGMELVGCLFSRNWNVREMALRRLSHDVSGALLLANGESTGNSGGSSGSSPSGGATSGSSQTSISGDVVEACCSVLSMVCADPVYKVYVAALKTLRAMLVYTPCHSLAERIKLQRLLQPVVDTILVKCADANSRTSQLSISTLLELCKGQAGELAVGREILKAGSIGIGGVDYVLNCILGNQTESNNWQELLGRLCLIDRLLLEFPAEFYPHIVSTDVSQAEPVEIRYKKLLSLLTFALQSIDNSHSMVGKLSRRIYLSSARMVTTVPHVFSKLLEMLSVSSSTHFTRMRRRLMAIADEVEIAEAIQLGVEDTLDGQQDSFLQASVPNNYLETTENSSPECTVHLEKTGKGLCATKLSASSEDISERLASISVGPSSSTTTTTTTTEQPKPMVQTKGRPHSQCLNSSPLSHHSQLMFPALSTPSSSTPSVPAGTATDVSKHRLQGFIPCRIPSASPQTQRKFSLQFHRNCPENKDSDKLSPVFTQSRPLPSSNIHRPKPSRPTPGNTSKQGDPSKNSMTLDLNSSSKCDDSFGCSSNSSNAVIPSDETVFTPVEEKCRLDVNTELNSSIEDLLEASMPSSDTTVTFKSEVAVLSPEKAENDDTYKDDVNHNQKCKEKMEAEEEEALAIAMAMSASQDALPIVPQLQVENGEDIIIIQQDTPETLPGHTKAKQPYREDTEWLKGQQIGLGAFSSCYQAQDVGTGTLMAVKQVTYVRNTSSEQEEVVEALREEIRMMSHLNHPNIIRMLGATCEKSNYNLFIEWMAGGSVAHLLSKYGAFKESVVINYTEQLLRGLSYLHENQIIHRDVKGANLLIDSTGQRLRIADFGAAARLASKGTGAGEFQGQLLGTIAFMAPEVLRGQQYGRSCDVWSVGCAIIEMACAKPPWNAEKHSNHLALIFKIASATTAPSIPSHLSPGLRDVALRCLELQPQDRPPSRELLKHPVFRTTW
Procedure, shortened: as §1

PRKG1 = target: T2, PRKG1 (Homo sapiens, UniProt Q13976)
T2 sequence (Q13976 1-671): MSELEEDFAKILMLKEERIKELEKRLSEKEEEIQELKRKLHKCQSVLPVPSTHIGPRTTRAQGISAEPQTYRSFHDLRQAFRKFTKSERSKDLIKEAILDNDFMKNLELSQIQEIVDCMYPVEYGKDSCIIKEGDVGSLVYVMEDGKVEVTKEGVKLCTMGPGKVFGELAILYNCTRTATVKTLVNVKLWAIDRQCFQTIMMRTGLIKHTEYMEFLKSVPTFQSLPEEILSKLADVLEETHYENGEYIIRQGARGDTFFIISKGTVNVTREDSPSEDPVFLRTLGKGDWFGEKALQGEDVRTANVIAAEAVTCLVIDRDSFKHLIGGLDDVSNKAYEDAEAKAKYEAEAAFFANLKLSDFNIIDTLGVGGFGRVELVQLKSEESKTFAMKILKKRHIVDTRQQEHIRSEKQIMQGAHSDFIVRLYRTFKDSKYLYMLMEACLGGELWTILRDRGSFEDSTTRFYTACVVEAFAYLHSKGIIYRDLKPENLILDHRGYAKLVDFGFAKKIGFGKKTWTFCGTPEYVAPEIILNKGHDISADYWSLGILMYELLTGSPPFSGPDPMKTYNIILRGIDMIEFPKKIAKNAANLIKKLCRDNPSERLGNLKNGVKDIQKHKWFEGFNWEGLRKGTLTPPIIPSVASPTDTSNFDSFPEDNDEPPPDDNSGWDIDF
Procedure, shortened: as §1

TAK1 = target: T3, TAK1 (Homo sapiens, UniProt O43318)
T3 construct: gene MAP3K7
T3 sequence (O43318 1-606): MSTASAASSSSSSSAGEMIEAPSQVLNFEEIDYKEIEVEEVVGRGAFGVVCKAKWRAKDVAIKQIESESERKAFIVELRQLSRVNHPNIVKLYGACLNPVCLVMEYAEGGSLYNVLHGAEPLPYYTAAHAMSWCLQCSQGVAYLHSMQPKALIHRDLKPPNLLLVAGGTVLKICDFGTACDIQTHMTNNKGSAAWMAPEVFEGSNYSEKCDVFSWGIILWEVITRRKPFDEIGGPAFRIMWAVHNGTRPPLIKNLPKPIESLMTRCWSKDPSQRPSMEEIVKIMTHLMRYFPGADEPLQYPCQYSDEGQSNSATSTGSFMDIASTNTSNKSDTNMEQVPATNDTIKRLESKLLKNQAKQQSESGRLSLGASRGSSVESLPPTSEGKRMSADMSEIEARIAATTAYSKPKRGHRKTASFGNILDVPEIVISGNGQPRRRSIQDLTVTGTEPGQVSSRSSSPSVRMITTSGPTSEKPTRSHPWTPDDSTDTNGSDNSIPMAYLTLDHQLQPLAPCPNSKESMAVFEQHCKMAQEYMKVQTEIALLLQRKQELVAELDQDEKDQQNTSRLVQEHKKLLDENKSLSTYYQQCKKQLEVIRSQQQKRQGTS
Procedure, shortened: as §1

[1] = read-out: Kinome Profiling performed by Eurofins DiscoverX / AM-1882, 1.0 µM / POC
[2] = read-out: Kinome Profiling performed by Eurofins DiscoverX / AM-5308, 1.0 µM / POC
[3] = read-out: Kinome Profiling performed by Eurofins DiscoverX / AM-0277, 1.0 µM / POC

remaining activity at 1 µM (Abl_phos; [1]): 63.5%
remaining activity at 1 µM (CDK2; [1]): 100%
remaining activity at 1 µM (MAP3K1; [1]): 76.5%
remaining activity at 1 µM (PRKG1; [1]): 89%
remaining activity at 1 µM (TAK1; [1]): 100%
SMILES: CC(C)(C)NS(=O)(=O)c1cccc(NC(=O)c2ccc(S(=O)(=O)NC(C)(C)C)cc2N2CCC3(CC2)CC3)c1 [AM-1882]

remaining activity at 1 µM (Abl_phos; [2]): 98.5%
remaining activity at 1 µM (CDK2; [2]): 94.5%
remaining activity at 1 µM (MAP3K1; [2]): 100%
remaining activity at 1 µM (PRKG1; [2]): 100%
remaining activity at 1 µM (TAK1; [2]): 88.5%
SMILES: C[C@@H]1CN(c2cccc(NC(=O)c3ccc(NS(=O)(=O)CCO)cc3N3CCC4(CC3)CC4)n2)CCO1 [AM-5308]

remaining activity at 1 µM (Abl_phos; [3]): 46%
remaining activity at 1 µM (CDK2; [3]): 97%
remaining activity at 1 µM (MAP3K1; [3]): 100%
remaining activity at 1 µM (PRKG1; [3]): 87%
remaining activity at 1 µM (TAK1; [3]): 100%
SMILES: CC(C)(CO)Nc1ccc(C(=O)Nc2cccc(S(=O)(=O)C3CCCC3)c2)c(N2CCC3(CC2)CC3)n1 [AM-0277]
